In patent publication US6723897B2, “Methods for controlling gibberellin levels” (Monsanto Technology, LLC, priority 1998, dated 2004):
“And” between values parts separate entries of the source, which are not always exact repeats. Identical values can stand only once.

Columns and labels:
[1] = tested on: R1 lines from pMON29220 (P-ICL/canola antisense CPS); experiment: Emergence of R1 canola seed (pMON29220) with exogenous GA3; format: in vivo, Brassica napus; conditions: GA3 10^−5 M to the seed or soil; lines with 2 day delay in emergence
Excerpt: Seeds are produced from plants transformed with plasmid pMON29220 (P-ICL/canola antisense CPS). These are planted and analyzed for germination phenotype. A 2 day delay in emergence is observed for 58% of the R1 lines tested from pMON29220.

[2] = tested on: pMON29801 soybean line 719; experiment: Foliar GA3 spray, stature of FMV/asCPScc soybean; format: in vivo, Glycine max
Excerpt: A foliar spray of GA3 restores normal stature of Line 719 plants. GA3 restores normal vegetative development (Table 6) when sprayed on the foliage of GA-deficient dwarf plants during vegetative development at rates between 10^−4 and 10^−6 M plus a surfactant (Tween 20, 0.05% v/v).

[3] = tested on: wild-type soybean line A3237; experiment: Experiment II second greenhouse test, seed imbibition, wild-type soybean; format: in vivo, Glycine max; conditions: seeds imbibed 6 hours
Description: (The compounds are tested in Experiment I at only one concentration, i.e., 0.25 mg/ml). Test tubes contained […] of ethanol solution per tube. Final volumes are made up to 30 ml with deionized water. After shaking, the treatment solutions (15 ml each) are transferred to each of two 50 ml test tubes. […] Twenty seeds are used in each treatment. Dry seed, ethanol/water-imbibed seed (1% ethanol in water, v/v), and water-imbibed seeds are included as controls. Seeds are imbibed for 6 hours in the test solutions, then planted in bread pans containing Metromix 350 (The Scotts Company, Marysville, Ohio), and covered with 0.5″ Metro-mix. Covered pans are transferred to the greenhouse and subirrigated. Illumination is at a light intensity of 300-400 μmolm^−2s^−1 photosynthetic photon flux; 16 hours light/8 hours dark. Subsequent waterings are also through sub-irrigation until the test is terminated three weeks later. Observations included the number of dwarf, intermediate, and tall plants; plant height; uniformity of rescue; and any visual effects. Digital photographs are also taken.

[4] = tested on: wild-type soybeans (line A3237); experiment: Summary of first two greenhouse experiments, elongation of wild-type soybeans
Description: Compounds are first prepared as 25 mg/ml solutions in ethanol as described above, and then diluted into 40 ml of water to prepare the final 0.25 mg/ml treatment solutions. Visual observations on solubilities (milky, clear, etc.) of the treatment solutions are noted. The treatment solutions are divided into two 20 ml portions, each in 50 ml plastic centrifuge tubes. In addition to treating seeds with solutions containing the test compounds, untreated seeds and seeds imbibed in ethanol-water solution (300 μl ethanol in 30 mls of water) are also included in this experiment as controls. In the latter case, 20 seeds are imbibed in 30 mls of solution for six hours.
Two soybean varieties are selected for testing: constitutively GA-deficient transgenic dwarf soybean line 719 (plasmid pMON29801, constitutive FMV promoter/asCPScc; which is a mixture of 719−2 and 719+17), and A3237, the wild-type parent material. […] After imbibition, seeds are removed from the test tubes, placed on wax paper to dry, and planted in bread pans containing farm soil amended with fertilizer at 20 seeds/pan. Seeds are covered with 0.5″ of vermiculite. Pans are transferred to the greenhouse, which had day/night temperatures of 86/68° F. (30/20° C.), and subirrigated. Illumination is at a light intensity of 300-400 μmolm^−2s^−1 photosynthetic photon flux; 16 hours light/8 hours dark. Subsequent waterings are also through sub-irrigation until the test is terminated three weeks later. Observations included the number of dwarf, intermediate, and tall plants; plant height; uniformity of rescue; and any visual effects.
All compounds are tested at final concentrations of 0.25, 0.025, and 0.0025 mg/ml except for GA9, which is tested at 0.125, 0.0125, and 0.00125 mg/ml. (The compounds are tested in Experiment I at only one concentration, i.e., 0.25 mg/ml). Test tubes contained […] of ethanol solution per tube. Final volumes are made up to 30 ml with deionized water. After shaking, the treatment solutions (15 ml each) are transferred to each of two 50 ml test tubes. Treatments 1 to 27 are performed on wild-type line A3237; treatments 28 to 54 are performed on constitutively GA-deficient transgenic dwarf soybean line 719 (a mixture of 719−2 and 719+17). Twenty seeds are used in each treatment. Dry seed, ethanol/water-imbibed seed (1% ethanol in water, v/v), and water-imbibed seeds are included as controls. Seeds are imbibed for 6 hours in the test solutions, then planted in bread pans containing Metromix 350 (The Scotts Company, Marysville, Ohio), and covered with 0.5″ Metro-mix. Covered pans are transferred to the greenhouse and subirrigated. Illumination is at a light intensity of 300-400 μmolm^−2s^−1 photosynthetic photon flux; 16 hours light/8 hours dark. Subsequent waterings are also through sub-irrigation until the test is terminated three weeks later. Observations included the number of dwarf, intermediate, and tall plants; plant height; uniformity of rescue; and any visual effects. Digital photographs are also taken.

[5] = Half-lives of 14C-labelled GA compounds in soil; conditions: spinks soil, aerobic, 25° C., darkness; read-out: Half-life (days) in soil (converted)
Description: Metabolic studies in soil are conducted with ^14C-labelled GA compounds in order to investigate the route and rate of compound degradation in soil under aerobic conditions. ^14C-labelled GA compounds are obtained from Lew Mander (Australian National University). The ^14C-labelled compounds dissolved in 0.2-2 ml water:ethanol, 80:20, v/v, are applied to 50-60 gm portions of spinks soil (USDA classification Loamy Sand: 82% sand, 14% silt, and 4% clay) in 250 ml centrifuge bottles at a rate of 0.1-0.2 ppm (6-12 μg; approximately 1,200,000 dpm per soil sample. The soil samples are placed in a glass dessicator which served as a container for all soil bottles. The glass dessicator is connected to three separate trapping solutions in series, each containing 20 ml of ethylene glycol:ethanolamine, 2:1, v/v. Air is pulled into the glass dessicator and through the trapping solutions by house vacuum. The trapping solutions are used to collect ^14C-volatiles and ^14C-CO2. Soil samples are incubated for eight days at 25° C. in darkness. For most experiments, duplicate soil samples are harvested 0, 6, 12, 24, 46, 72, 120, and 192 hours after initial treatment. Soil samples are extracted twice with 100 ml of water:methanol, 20:80, v/v, and the combined extracts are analyzed by HPLC under the same conditions as described for the determination of half-lives of GA compounds in planta, above.

[6] = tested on: wild-type (A3237) soybean; experiment: Hilum treatment with GA15, GA19, GA24, GA44, hypocotyl length, wild-type soybean; conditions: 10 μg/seed, 5 DAP
Description: The purpose of this experiment is to evaluate potential gibberellin rescue agents occurring at an intermediate or middle portion of the gibberellin biosynthesis pathway (between GA53/GA12 and GA20/GA9) as seed treatments. These GA compounds are tested using hilum treatment and comparing activity on GA-deficient soybean plants and normal (wild-type) plants.
Wild-type A3237 soybeans are obtained from Asgrow Seed Company. Transgenic seeds are fifth generation (R5) line 719 seeds.
The GA compounds are dissolved in absolute ethanol at a concentration of approximately 10 μg/ml. Compounds are applied to the hilum of dry soybean seed as 1 μl drops. Seeds are sown in 4-inch plastic pots (2 pots per treatment; 5 seeds/pot) containing commercial potting soil (Metromix 200) placed in a greenhouse set for 12 hr light, and day and night temperatures of 85° F. (29° C.) and 75° F. (24° C.), respectively. After all treatments are emerged (5 DAP), hypocotyl length is measured.

[7] = 'no GA': single spray treatment at 21 DAP with GA, not further sprayed
[8] = GA sprayed approximately every week starting at 21 DAP
[9] = 0.0025 mg/ml solution (ethanol-water)
[10] = 0.025 mg/ml solution (ethanol-water)
[11] = 0.25 mg/ml solution (ethanol-water)

SMILES	Significant Visual Observations on Line A3237 ([3]; 0.25 mg/ml)	Elongation of wild-type soybeans [4, 9]	Elongation of wild-type soybeans [4, 10]	Elongation of wild-type soybeans [4, 11]	other results
C=C1C[C@]23C[C@@]1(O)CC[C@H]2[C@@]12C=C[C@H](O)[C@@](C)(C(=O)O1)[C@H]2[C@@H]3C(=O)O [GA3, gibberellic acid]	Poor emergence	+	+	+	emergence delay [1]: rescuing the emergence delay; Plant height (cm), 21 DAP [2, 7]: 2.0 cm and 2.5 cm; Plant height (cm), 50 DAP [2, 7]: 13 cm; Plant height (cm), 21 DAP [2, 8]: 2.5 cm; Plant height (cm), 50 DAP [2, 8]: 61 cm and 56 cm; half-life [5]: 0.5 days; hypocotyl elongation of wild-type (A3237) soybean (FIG. 41) [6]: overelongation of A3237 hypocotyls
C=C1C[C@]23C[C@@]1(O)CC[C@H]2[C@@]12C=C[C@H](OC(C)=O)[C@@](C)(C(=O)O1)[C@H]2[C@@H]3C(=O)O [GA3-3-acetate]					Significant Visual Observations on Line A3237 ([3]; 0.0025 mg/ml): Normal height
C=C1C[C@]23C[C@@]1(O)CC[C@H]2[C@@]12CC=C[C@@](C)(C(=O)O1)[C@H]2[C@@H]3C(=O)O [GA5]		0	0	+	Significant Visual Observations on Line A3237 ([3]; 0.025 mg/ml): Normal height
C=C1C[C@]23C[C@H]1CC[C@H]2[C@@]12CCC[C@@](C)(C(=O)O1)[C@H]2[C@@H]3C(=O)O [GA9]				+	Significant Visual Observations on Line A3237 ([3]; 0.125 mg/ml): Normal height; Elongation of wild-type soybeans ([4]; 0.00125 mg/ml solution (ethanol-water)): −; Elongation of wild-type soybeans ([4]; 0.0125 mg/ml solution (ethanol-water)): 0; Elongation of wild-type soybeans ([4]; 0.125 mg/ml solution (ethanol-water)): 0
C=C1C[C@]23C[C@H]1CC[C@H]2[C@]1(C)CCC[C@@](C)(C(=O)O)[C@H]1[C@@H]3C(=O)O [GA12]	Short plants	0	−	−	
C=C1C[C@@]23CC[C@H]4[C@@](C)(CCC[C@@]4(C)C(=O)O)[C@@H]2CC[C@@H]1C3 [kaurenoic acid]		0	0	−	
